The source of these data is US20210113563A1, “4-(4-CYANO-2-THIOARYL)DIHYDROPYRIMIDINONES FOR TREATING CHRONIC WOUNDS” (pH Pharma Co., Ltd., priority 2015, published 2021).

This experiment has as its system collagen in ulcer tissue. Kind of experiment: Collagen deposition in chronic skin lesions of adriamycin-treated rats, Ladewig staining. It is filed as in vivo, rat. Conditions: 10 mg/kg BW o.d. p.o., normal skin = 0, no blue staining = −10. Here is the method: Vehicle: • DEPO—DMSO, Ethanol, Peanut Oil 5/3/92 (V/V/V) o.d., p.o., 5 ml/kg BW
Day 0: • Animal randomization, marking, inhalation anesthesia: isoflurane, O2, N2O mixture, shaving of lower back, the animals remain on warming pads in order to avoid cooling down during the adriamycin injection, pain prevention with Temgesic s.c.
Depot set: 3 intradermal injections of 0.15 ml adriamycin (2 mg/ml) per animal in front and rear back, size measurement of the depot via caliper.
On day 2, 4, 7, 9, 11, 14, 16, 18, 21, 23, 25 and 28 • inhalation anesthesia: isoflurane, O2, N2O mixture • size measurement of the depot and photos Day 28 section • inhalation anesthesia: isoflurane, O2, N2O mixture under anesthesia and then dislocation of the cervical spine • size measurement of the depot and the incision wound and photos • Former depots were harvested by punch biopsies • Wound 1/custodian of any animal->in liquid N2 for peroxidase and elastase determination • Wound 2/custodian of any animal->in liquid N2 for Hydroxyproline determination • Wound 3/custodian of any animal->in formalin fixed for histological studies • Samples were stored for further procedures at −80° C.
Paraffin-embedded skin samples: the skin piece is placed with the downside on a piece of cork and 4 with needles and transferred into formalin (3.7% in PBS). […]

Molecules are shown by their SMILES.

As to `CC1=C(C#N)[C@@H](c2ccc(C#N)cc2S(C)(=O)=O)N(C)C(=O)N1c1cccc(C(F)(F)F)c1` [Example 5, (4 S)-4-[4-Cyano-2-(methylsulfonyl)phenyl]-3,6-dimethyl-2-oxo-1-[3-(trifluoromethyl)phenyl]-1,2,3,4-tetrahydropyrimidine-5-carbonitrile], the Ladewig score was −1.38 (n = 8).
